For orientation: IC50 means the concentration that inhibits the measured activity by half. The EC50 is the concentration that produces a half-maximal response. High values mean a less potent agent, low ones a more potent agent.

This is an account of results in patent US12357631B2 (priority 2018, dated 2025).

Among the targets are PB2 CDlp7007 H3N2 (Influenza A virus, UniProt P31345); PB2 CDlp7028 H3N2 (Influenza A virus, UniProt P31345); PB2 (Influenza A virus, UniProt P03428); PB2 CDlp7026 H1N1 (Influenza A virus, UniProt P03428).
Common to all, as to assay: biochemical
Holding throughout (type): binding

Structures are written as SMILES. A value given as a limit tells only on which side of the number the result lay.

Sequence of PB2 (P03428 whole entry, looked up): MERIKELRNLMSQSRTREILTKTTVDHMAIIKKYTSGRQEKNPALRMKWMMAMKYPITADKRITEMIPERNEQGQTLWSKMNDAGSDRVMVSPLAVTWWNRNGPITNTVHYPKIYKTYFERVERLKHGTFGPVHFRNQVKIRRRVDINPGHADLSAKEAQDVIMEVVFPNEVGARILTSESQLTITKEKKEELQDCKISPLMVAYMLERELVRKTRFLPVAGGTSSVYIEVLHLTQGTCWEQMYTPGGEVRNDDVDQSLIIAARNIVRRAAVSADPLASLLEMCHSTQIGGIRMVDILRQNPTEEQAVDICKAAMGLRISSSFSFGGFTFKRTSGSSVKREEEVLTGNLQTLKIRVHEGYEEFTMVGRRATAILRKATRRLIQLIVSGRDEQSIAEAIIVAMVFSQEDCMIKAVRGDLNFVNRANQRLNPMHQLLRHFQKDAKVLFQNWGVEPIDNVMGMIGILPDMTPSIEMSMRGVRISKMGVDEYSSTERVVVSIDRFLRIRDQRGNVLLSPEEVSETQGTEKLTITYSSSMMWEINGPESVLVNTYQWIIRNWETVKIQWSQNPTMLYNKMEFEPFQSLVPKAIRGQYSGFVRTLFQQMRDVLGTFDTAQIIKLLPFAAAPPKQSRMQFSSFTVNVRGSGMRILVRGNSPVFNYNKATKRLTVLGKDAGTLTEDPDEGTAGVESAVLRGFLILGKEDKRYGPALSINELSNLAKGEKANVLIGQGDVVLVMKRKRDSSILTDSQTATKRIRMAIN
Sequence of PB2 CDlp7028 H3N2 (P31345 whole entry, looked up): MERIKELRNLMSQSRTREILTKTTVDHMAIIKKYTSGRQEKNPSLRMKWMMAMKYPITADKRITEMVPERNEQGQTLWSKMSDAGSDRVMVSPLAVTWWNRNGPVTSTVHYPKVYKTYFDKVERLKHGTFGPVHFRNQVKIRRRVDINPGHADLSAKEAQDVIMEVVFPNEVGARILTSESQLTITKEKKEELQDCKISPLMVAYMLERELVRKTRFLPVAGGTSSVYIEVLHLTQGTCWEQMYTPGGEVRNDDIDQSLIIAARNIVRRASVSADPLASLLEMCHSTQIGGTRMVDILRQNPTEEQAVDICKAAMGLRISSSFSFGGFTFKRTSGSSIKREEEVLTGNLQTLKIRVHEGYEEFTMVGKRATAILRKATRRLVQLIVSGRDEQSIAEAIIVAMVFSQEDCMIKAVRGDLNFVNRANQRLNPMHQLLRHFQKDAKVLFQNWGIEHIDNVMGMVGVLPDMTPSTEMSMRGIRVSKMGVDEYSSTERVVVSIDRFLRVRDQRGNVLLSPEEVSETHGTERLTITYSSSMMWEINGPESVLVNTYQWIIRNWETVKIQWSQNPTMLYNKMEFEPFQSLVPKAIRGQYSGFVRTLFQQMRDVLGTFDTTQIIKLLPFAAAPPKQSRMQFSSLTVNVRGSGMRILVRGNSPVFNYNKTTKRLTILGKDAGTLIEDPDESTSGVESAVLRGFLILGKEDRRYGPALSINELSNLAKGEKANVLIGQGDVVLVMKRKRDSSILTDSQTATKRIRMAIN
Sequence of PB2 CDlp7007 H3N2 (P31345 whole entry, looked up): as above
Sequence of PB2 CDlp7026 H1N1 (P03428 whole entry, looked up): as the sequence (P03428 whole entry, looked up) above

For the compound `CCOCCOCCCCCN(C)C(=O)N[C@@H]1CCC[C@H](Nc2nc(-c3c[nH]c4ncc(F)cc34)ncc2F)C1` [Compound A181], the IC50 is 50 to 100 µM at PB2 CDlp7007 H3N2 and 25 to 50 µM against PB2 CDlp7028 H3N2.
The matching figures for `CCOCCOCCOCCN(C)C(=O)N[C@@H]1CCC[C@H](Nc2nc(-c3c[nH]c4ncc(F)cc34)ncc2F)C1` [Compound A165]: 50 to 100 µM and 50 to 100 µM.
The matching figures for `CCOCCOCCCCC(=O)N[C@@H]1CCC[C@H](Nc2nc(-c3c[nH]c4ncc(F)cc34)ncc2F)C1` [Compound A270]: greater than 100 µM and greater than 100 µM.
In the case of `CCNC(=O)OCc1ccnc(C(=O)N[C@@H]2CCC[C@H](Nc3nc(-c4c[nH]c5ncc(F)cc45)ncc3F)C2)c1` [Compound A70], the EC50 on PB2 is less than 5 µM. Moreover, the values for the IC50 at PB2 CDlp7026 H1N1, against PB2 CDlp7007 H3N2 and against PB2 CDlp7028 H3N2 were 5 to 25 µM, 5 to 25 µM and less than 5 µM, respectively.
For `O=C(COCCOCCOCCO)N1CCC[C@H](Nc2nc(-c3c[nH]c4ncc(F)cc34)ncc2F)C1` [Compound C1], the IC50 against PB2 CDlp7007 H3N2 and against PB2 CDlp7028 H3N2 was 5 to 25 µM each time.
In turn, `CCOCCOCCOCCNC(=O)N[C@@H]1CCC[C@H](Nc2nc(-c3c[nH]c4ncc(F)cc34)ncc2F)C1` [Compound A164] yielded an EC50 at PB2 of 25 to 50 µM. Moreover, the IC50 against PB2 CDlp7007 H3N2 fell in the range of 25 to 50 µM.
Consider `CCOCCOCCOCC(=O)N[C@@H]1CCC[C@H](Nc2nc(-c3c[nH]c4ncc(F)cc34)ncc2F)C1` [Compound A263], for which the EC50 at PB2 was in the range of 25 to 50 µM. The compound also displayed an IC50 against PB2 CDlp7007 H3N2 of 25 to 50 µM.
In the case of `CCOc1ccc(CNC(=O)OCc2cc(C(=O)N[C@H]3CCC[C@@H](Nc4nc(-c5c[nH]c6ncc(F)cc56)ncc4F)C3)ncc2F)cc1` [Compound A147], the EC50 at PB2 is greater than 100 µM.
`CCOCCC(=O)N(CC)Cc1ccnc(C(=O)N[C@@H]2CCC[C@H](Nc3nc(-c4c[nH]c5ncc(F)cc45)ncc3F)C2)c1` [Compound A69]: at PB2, the EC50 is less than 5 µM.
The same measure, in the same setting: for `CN(CCOCCOCCOCCO)C(=O)N[C@H]1CCC[C@@H](Nc2nc(-c3c[nH]c4ncc(F)cc34)ncc2F)C1` [Compound A190] the value was greater than 100 µM.
Turning to `CCOCCOCCOCC(=O)N1CCC[C@H](Nc2nc(-c3c[nH]c4ncc(F)cc34)ncc2F)C1` [Compound C2], the IC50 against PB2 CDlp7007 H3N2 and against PB2 CDlp7028 H3N2 was 5 to 25 µM throughout.
Regarding `CCCCCCOCCCCN(C)C(=O)N[C@H]1CCC[C@@H](Nc2nc(-c3c[nH]c4ncc(F)cc34)ncc2F)C1` [Compound A205], the EC50 on PB2 is greater than 100 µM.
The same measure, in the same setting: under `O=C(O)CCC(=O)N1CCC[C@H](Nc2nc(-c3c[nH]c4ncc(F)cc34)ncc2F)C1` [Compound C5] stands less than 5 µM; under `CCOCCOCCCCCN(C)C(=O)N(C)[C@H]1CCC[C@@H](Nc2nc(-c3c[nH]c4ncc(F)cc34)ncc2F)C1` [Compound A241], greater than 100 µM; under `CCOc1ccc(CNC(=O)OC(C)c2ccnc(C(=O)N[C@H]3CCC[C@@H](Nc4nc(-c5c[nH]c6ncc(F)cc56)ncc4F)C3)c2)cc1` (stereo partly drawn) [Compound A139], greater than 100 µM.
With `CCOCCCCCOCCNC(=O)N[C@H]1CCC[C@@H](Nc2nc(-c3c[nH]c4ncc(F)cc34)ncc2F)C1` [Compound A192], the EC50 on PB2 was greater than 100 µM.
The same measure, in the same setting: for `O=C(NCCOCC(F)(F)F)OCc1ccnc(C(=O)N[C@H]2CCC[C@@H](Nc3nc(-c4c[nH]c5ncc(F)cc45)ncc3F)C2)c1` [Compound A114] the value was 50 to 100 µM; for `O=C(N[C@@H]1CCC[C@H](Nc2nc(-c3c[nH]c4ncc(F)cc34)ncc2F)C1)c1cc(COCCCCCOCc2ccc(F)cc2)ccn1` [Compound A95], greater than 100 µM; for `COCc1cccc(-c2ccnc(C(=O)N[C@@H]3CCC[C@H](Nc4nc(-c5c[nH]c6ncc(F)cc56)ncc4F)C3)c2)c1` [Compound A61], 25 to 50 µM.
The same measure, in the same setting: for `O=C(N[C@H]1CCC[C@@H](Nc2nc(-c3c[nH]c4ncc(F)cc34)ncc2F)C1)N1CCCC(CCCOCCO)C1` (stereo partly drawn) [Compound A10] the value was 5 to 25 µM.
On the same count and under the same terms, under `CCOCCOCCOCCNC(=O)N[C@H]1CCC[C@@H](Nc2nc(-c3ccnc(Cl)c3)ncc2F)C1` [Compound A197] stands greater than 100 µM; under `CCOCCOCCCCCOC(=O)N[C@@H]1CCC[C@H](Nc2nc(-c3c[nH]c4ncc(F)cc34)ncc2F)C1` [Compound A281], greater than 100 µM; under `Cc1ccc(C(=O)N[C@H]2CCC[C@@H](Nc3nc(-c4c[nH]c5ncc(F)cc45)ncc3F)C2)cn1` [Compound A56], less than 5 µM.
